Reference: US9839618B2, “Compositions and methods relating to proliferative diseases” (The Penn State Research Foundation, priority 2010, dated 2017)
Entries after “also recorded” stand apart in the source; their conditions may differ.

Assays:
[1] = test system: Prostate (PC-3) cancer cell line; assay: MTS assay viability IC50, PC-3; format: cell-based; conditions: Table 5
Procedure: (§1) Dehydroabietylamine, its N-substituted derivatives and the corresponding dihydroabietylamine and its N-substituted derivatives are tested for their capability to inhibit cell growth of cancer cell lines, including melanoma (UACC 903, 1205Lu), breast (MCF-7), fibrosarcoma (HT-1080), colon (Caco-2), and prostate (PC-3) cancer cell lines. Viability and IC50 of normal human fibroblasts and cell lines from melanoma and other malignancies following treatment with all the agents are measured using the MTS assay (Promega, Madison, Wis.). Human fibroblast FF2441 cells, metastatic melanoma cell lines 1205 Lu and UACC 903 as well as cancer cell lines representing sarcoma (HT-1080), prostate (PC-3, LNCaP), breast (MCF-7) and lung (A-549) are maintained in DMEM (Invitrogen, Carlsbad, Calif.) supplemented with 10% FBS (Hyclone, Logan, Utah) in a 5% CO2 atmosphere, humidified 37° C. incubator. 5×10^3 cells per well in 100 μL of media are plated and grown in a 96-well plate for 48 to 72 h and treated with either DMSO vehicle control or 0.62 to 40 μmol/L for 24, 48 or 72 h. IC50 values for each compound in […] for respective cell lines are measured from three independent experiments using GraphPad Prism version 4.01 (GraphPad Software, La Jolla, Calif.). FIG. 52 is a graph showing IC50 values for leelamine and compounds 4a, 4b and 5a in treated fibroblasts (FF2441) compared to melanoma cells. Selectivity ratio here is defined as ratio of activity against fibroblasts compared to activity against melanoma cells. Leelamine is relatively selective with a ratio of >6 and >4 for UACC903 and 1205Lu melanoma cells. The selectivity ratio of compound 4a is ˜4 and ˜3 for UACC903 and 1205Lu and for compound 4b is ˜4 for both cell lines. The selectivity ratio of compound 5a is ˜4 for UACC903 and >2 for 1205Lu cells.

[2] = test system: Prostate (LnCap) cancer cell line; assay: MTS assay viability IC50, LnCap; format: cell-based; conditions: Homo sapiens, Table 5
Procedure: as §1

[3] = test system: PI3K/Akt signaling pathway; assay: Western blot, PI3K/Akt pathway; format: cell-based, human; conditions: for PI3K/AKT pathway (pAKT, pPRAS40, cyclin D1): Example 8, 24 hours, actives 3-5 μmol/L, inactives 30-50 μmol/L
Procedure: (§2) For Western blot analysis, cell lysates are harvested by addition of RIPA lysis buffers containing 25 mM Tris.HCl pH 7.6, 150 mM NaCl, 1% NP-40, 1% sodium deoxycholate, 0.1% SDS, 10 mM EDTA, 1 mM sodium orthovanadate, 0.1 mM sodium molybdate, 1 mM phenylmethylsulfonyl fluoride, 20 μg/mL aprotinin, and 5 μg/mL leupeptin. The cell lysates are harvested and processed as described in Madhunapantula, S. V. et al., Cancer Res, 2007, 67:3626-36. Treatment conditions: 1-1.5×10^6 melanoma cells are plated in 100 mm culture dishes, 48 h later, treated with leelamine (3-6 μmol/L) for 3 to 24 hours. Protein lysates are collected for Western blotting. The blots are probed with antibodies according to each supplier's recommendations: antibodies to total Akt, phospho-Akt (Ser473), total PRAS40, phospho-PRAS40 (Thr246), total CREB, phospho-CREB (Ser133), phospho-p70 S6 kinase (Thr389), total Erk1/2, phospho-Erk1/2 (Thr202/Tyr 204), total CDK2, phospho-CDK2 (Thr160), phospho-Rb (Ser807/811), total Stat, phospho-Stat1 (Tyr701), Phospho-Stat-2(Tyr690), Phospho-Stat3(Ser727), phospho-Stat3(Tyr705) and cleaved PARP from Cell Signaling Technology (Danvers, Mass.); total PRAS40 from Invitrogen (Carlsbad, Calif.); cyclin D1, Bcl-2, α-enolase and secondary antibodies conjugated with horseradish peroxidase from Santa Cruz Biotechnology (Santa Cruz, Calif.). Immunoblots are developed using the enhanced chemiluminescence (ECL) detection system (Thermo Fisher Scientific, Rockford, Ill.). Intensity of protein bands is quantified using ImageJ software.
(§3) For Western blot analysis, 1×10^6 melanoma cells are plated in 100 mm culture dishes, 48 hours later, treated with empty liposomes or Nanolipolee-007 (3-6 μmol/L) for 3 to 24 hours. Protein lysates collected for Western blotting. The cell lysates are harvested in an RIPA lysis buffer containing protease and phosphatases inhibitors (Pierce Biotechnology, Rockford, Ill.). Blots are probed with antibodies according to each supplier's recommendations: antibodies to total Akt, phospho-Akt (Ser473), total PRAS40, phospho-PRAS40 (Thr246), total Bad, pBad (Ser 112) total Erk1/2, phospho-Erk1/2 (Thr202/Tyr 204), total CDK2, phospho-CDK2 (Thr160), phospho-Rb (Ser807/811), total Stat, phospho-Stat3 (Tyr705), caspase-3 and cleaved PARP from Cell Signaling Technology (Danvers, Mass.); total PRAS40 from Invitrogen (Carlsbad, Calif.); cyclin D1, α-enolase and secondary antibodies conjugated with horseradish peroxidase from Santa Cruz Biotechnology (Santa Cruz, Calif.). Immunoblots are developed using the enhanced chemiluminescence (ECL) detection system (Thermo Fisher Scientific, Rockford, Ill.). Intensity of protein bands is quantified using ImageJ software.
(§4) Cell lysates are harvested by addition of RIPA lysis buffers containing 25 mM Tris*HCl pH 7.6, 150 mM NaCl, 1% NP-40, 1% sodium deoxycholate, 0.1% SDS, 10 mM EDTA, 1 mM sodium orthovanadate, 0.1 mM sodium molybdate, 1 mM phenylmethylsulfonyl fluoride, 20 μg/mL aprotinin, and 5 μg/mL leupeptin. The cell lysates are harvested and processed as described. […] Protein lysates collected for Western blotting. […] Intensity of protein bands is quantified using ImageJ software. […]

STAT signaling pathway = assay: Western blot, STAT pathway; format: cell-based, human; conditions: for STAT3 pathway (pSTAT3): Example 8, 24 hours, actives 3-5 μmol/L, inactives 30-50 μmol/L
Procedure: as §2, §3, §4

MAPK signaling pathway = assay: Western blot, MAPK pathway; format: cell-based, human; conditions: for MAPK pathway (pERK1/2, pCDK2): Example 8, 24 hours, actives 3-5 μmol/L, inactives 30-50 μmol/L
Procedure: as §2, §3, §4

[4] = 3 to 6 μmol/L for 3 to 24 hours, UACC 903 and 1205 Lu

Row | SMILES | IC50 [1] | IC50 [2] | PI3K/AKT pathway (pAKT, pPRAS40, cyclin D1) [3] | STAT3 pathway (pSTAT3) (STAT signaling pathway) | MAPK pathway (pERK1/2, pCDK2) (MAPK signaling pathway) | PI3 kinase pathway signaling [3, 4] | STAT pathway signaling (STAT signaling pathway; [4]) | MAP kinase pathway signaling (MAPK signaling pathway; [4])
1 | CC(C)C1=CC2=CCC3[C@](C)(CCC[C@@]3(C)C(=O)O)C2CC1 (stereo partly drawn) [Abietic acid, (1R,4aR)-1,4a-dimethyl-7-(propan-2-yl)-1,2,3,4,4a,4b,5,6,10,10a-decahydrophenanthrene-1-carboxylic acid, reference compound] | > 100 µM | > 100 µM | unable to affect | unable to affect | unable to affect | – | – | –
2 | CC(C)C1=CC2=CCC3[C@](C)(CN)CCC[C@]3(C)C2CC1 (stereo partly drawn) [Compound 4a, {[(1R,4aR)-1,4a-dimethyl-7-(propan-2-yl)-1,2,3,4,4a,4b,5,6,10,10a-decahydrophenanthren-1-yl]methyl}amine] | 9.73 ± 1.04 µM | 14.8 ± 1.99 µM | decrease pAKT, pPRAS40 and cyclin D1 | decrease pSTAT3 expression at all doses | Dose dependent reduction of pERK1/2 and pCDK2 | – | – | –
3 | CC(C)c1ccc2c(c1)CCC1[C@](C)(CNC(=O)C(F)(F)F)CCC[C@]21C (stereo partly drawn) [Compound 5a, N-{[(1R,4aS)-1,4a-dimethyl-7-(propan-2-yl)-1,2,3,4,4a,9,10,10a-octahydrophenanthren-1-yl]methyl}-2,2,2-trifluoroacetamide] | 4.66 ± 0.55 µM | 8.63 ± 0.97 µM | decrease pAKT, pPRAS40 and cyclin D1 | decrease pSTAT3 expression at all doses | Dose dependent reduction of pERK1/2 and pCDK2 | – | – | –
4 | CC(C)c1ccc2c(c1)CCC1[C@](C)(CN)CCC[C@]21C (stereo partly drawn) [Leelamine, [(1R,4aS)-1,4a-dimethyl-7-(propan-2-yl)-1,2,3,4,4a,9,10,10a-octahydrophenanthren-1-yl]methanamine] | 4.85 ± 1.09 µM | 10.9 ± 2.11 µM | highly effective in abolishing activation of AKT pathway; also recorded: decrease pAKT, pPRAS40 and cyclin D1 | completely blocked pSTAT3 expression; also recorded: decrease pSTAT3 expression at all doses | blocks activation of ERK1/2; also recorded: Dose dependent reduction of pERK1/2 and pCDK2 | decrease activity | decrease activity | decrease activity
